Assay results taken from ChEMBL document CHEMBL4602617, “Discovery and optimization of heteroaryl piperazines as potent and selective PI3Kδ inhibitors” (Bioorg Med Chem Lett, 2020).

Key:
Homo sapiens = organism: Homo sapiens; assay: Selectivity index, ratio IC50 for inhibition of recombinant human N-terminal His6-tagged full-length p120gamma expressed in Sf21 insect cells to ratio IC50 for inhibition of recombinant human full-length N-terminal GST-tagged p110delta/untagged full-length p85alpha expressed in baculovirus infected Sf21 cells
[1] = Protein binding in dog plasma at 0.5 mg/kg, iv or 1 mg/kg, po; type: ADME, organism-based, Canis lupus familiaris; settings: read-out: PPB (converted)
[2] = biological target: Voltage-dependent L-type calcium channel subunit alpha-1C (Homo sapiens, UniProt Q13936); assay: Inhibition of Cav1.2 (unknown origin)
[3] = biological target: Calcium/calmodulin-dependent protein kinase type II subunit beta (Homo sapiens, UniProt Q13554); assay: Inhibition of recombinant full length human His-tagged CAMK2beta expressed in baculovirus expression system using serine/threonine-17 peptide as substrate incubated for 60 mins in presence of ATP by Z'-LYTE assay
[4] = biological target: Tyrosine-protein kinase ABL1 (Homo sapiens, UniProt P00519); assay: Inhibition of recombinant full length human His-tagged ABL1 cytoplasmic domain expressed in baculovirus expression system using tyrosine-2 peptide as substrate incubated for 60 mins in presence of ATP by Z'-LYTE assay
Ephrin type-A receptor 1 = Ephrin type-A receptor 1 (Homo sapiens, UniProt P21709); assay: Inhibition of recombinant human GST-tagged EPHA1 cytoplasmic domain (568 to 976 residues) expressed in baculovirus expression system using Tyr 02 as substrate after 1 hr in presence of ATP by Z'LYTE assay
[5] = biological target: Glycogen synthase kinase-3 alpha (Homo sapiens, UniProt P49840); assay: Inhibition of recombinant full length GST-tagged human GSK3alpha expressed in baculovirus expression system using Ser/Thr 09 peptide as substrate after 1 hr in presence of ATP by Z'LYTE assay
[6] = biological target: Vasopressin V2 receptor (Homo sapiens) (UniProt P30518); assay: Displacement of [3H]-(Arg8)-Vasopressin from recombinant full length human V2 receptor expressed in CHO-K1 cells at 10 uM after 120 mins by radiometric scintillation analysis relative to control; type: cell-based
[7] = biological target: Prostaglandin E2 receptor EP3 subtype (Homo sapiens) (UniProt P43115); assay: Inhibition of human prostanoid EP3 receptor at 10 uM relative to control
[8] = biological target: Platelet-activating factor receptor (Homo sapiens) (UniProt P25105); assay: Inhibition of human PAF at 10 uM relative to control
Rattus norvegicus = organism: Rattus norvegicus; assay: Displacement of [3H]CGP-54626 from GABAB in Wistar rat whole brain at 10 uM incubated for 20 mins by radiometric scintillation analysis relative to control; type: tissue-based
[9] = biological target: Androgen receptor (Homo sapiens) (UniProt P10275); assay: Displacement of [3H]methyltrienolone from human LNCAP cells derived androgen receptor at 10 uM measured after 20 hrs by scintillation counting method relative to control; type: cell-based
[10] = biological target: Alpha-1B adrenergic receptor (Rattus norvegicus) (UniProt P15823); assay: Displacement of [3H]prazosin from alpha1b adrenergic receptor in Wistar rat liver membranes at 10 uM measured after 60 mins by scintillation counting method relative to control; type: cell membranes; settings: Membrane
CDK7/Cyclin H/MNAT1 = CDK7/Cyclin H/MNAT1 (Homo sapiens, UniProt P50613); assay: Inhibition of recombinant full length human His-tagged CDK7/CyclinH/MAT1 expressed in baculovirus expression system using CDK7/9tide peptide as substrate incubated for 60 mins in presence of ATP by Adapta assay
Ephrin type-A receptor 2 = Ephrin type-A receptor 2 (Homo sapiens, UniProt P29317); assay: Inhibition of recombinant human GST-tagged EPHA2 cytoplasmic domain expressed in baculovirus expression system using tyrosine-01 peptide as substrate incubated for 60 mins in presence of ATP by Z'-Lyte assay
[11] = biological target: G protein-coupled receptor kinase 5 (Homo sapiens, UniProt P34947); assay: Inhibition of recombinant full length human GST-tagged GRK5 expressed in baculovirus expression system using serine/threonine-16 peptide as substrate incubated for 60 mins in presence of ATP by Z'-LYTE assay
[12] = biological target: Tyrosine-protein kinase ITK/TSK (Homo sapiens, UniProt Q08881); assay: Inhibition of recombinant full length human GST-tagged ITK expressed in baculovirus expression system using tyrosine-1 peptide as substrate incubated for 60 mins in presence of ATP by Z'-LYTE assay
[13] = biological target: Tyrosine-protein kinase JAK1 (Homo sapiens, UniProt P23458); assay: Inhibition of human recombinant GST tagged JAK1 expressed in baculovirus expression system using Tyr6 peptide as substrate measured after 1 hr in presence of ATP by Z'-LYTE assay
[14] = biological target: Tyrosine-protein kinase JAK2 (Homo sapiens, UniProt O60674, V617F); assay: Inhibition of human recombinant GST tagged JAK2 V617F mutant catalytic domain expressed in baculovirus expression system using Tyr6 peptide as substrate measured after 1 hr in presence of ATP by Z'-LYTE assay
[15] = biological target: Tyrosine-protein kinase Lyn (Homo sapiens, UniProt P07948); assay: Inhibition of recombinant full length human His-tagged LYN-A expressed in baculovirus expression system using tyrosine-2 peptide as substrate incubated for 60 mins in presence of ATP by Z'-LYTE assay
[16] = biological target: MAP/microtubule affinity-regulating kinase 4 (Homo sapiens, UniProt Q96L34); assay: Inhibition of recombinant full length human GST-tagged MARK4 expressed in baculovirus expression system using serine/threonine-25 peptide as substrate incubated for 60 mins in presence of ATP by Z'-LYTE assay
[17] = biological target: Serine/threonine-protein kinase Nek2 (Homo sapiens, UniProt P51955); assay: Inhibition of recombinant full length human His-tagged NEK2 expressed in baculovirus expression system using serine/threonine-7 peptide as substrate incubated for 60 mins in presence of ATP by Z'-LYTE assay
[18] = biological target: Serine/threonine-protein kinase Nek9 (Homo sapiens, UniProt Q8TD19); assay: Inhibition of recombinant human GST-tagged NEK9 catalytic domain (347 to 732 residues) expressed in baculovirus expression system using serine/threonine-7 peptide as substrate incubated for 60 mins in presence of ATP by Z'-LYTE assay
[19] = biological target: Platelet-derived growth factor receptor alpha (Homo sapiens, UniProt P16234); assay: Inhibition of recombinant human GST-tagged PDGFRalpha cytoplasmic domain (550 to 1089 residues) expressed in baculovirus expression system using tyrosine-4 peptide as substrate incubated for 60 mins in presence of ATP by Z'-LYTE assay
[20] = biological target: Serine/threonine-protein kinase pim-1 (Homo sapiens, UniProt P11309); assay: Inhibition of recombinant full length human His-tagged PIM1 expressed in baculovirus expression system using serine/threonine-7 peptide as substrate incubated for 60 mins in presence of ATP by Z'-LYTE assay
[21] = biological target: Serine/threonine-protein kinase pim-2 (Homo sapiens, UniProt Q9P1W9); assay: Inhibition of recombinant full length GST-tagged human PIM2 expressed in baculovirus expression system using Ser/Thr 07 as substrate after 1 hr in presence of ATP by Z'-LYTE assay
[22] = biological target: Protein-tyrosine kinase 6 (Homo sapiens, UniProt Q13882); assay: Inhibition of recombinant full length human His-tagged BRK expressed in baculovirus expression system using tyr01 peptide as substrate incubated for 60 mins in presence of ATP by Z'-LYTE assay

Chain of CDK7/Cyclin H/MNAT1 (P51946 whole entry, the tested form may be a part): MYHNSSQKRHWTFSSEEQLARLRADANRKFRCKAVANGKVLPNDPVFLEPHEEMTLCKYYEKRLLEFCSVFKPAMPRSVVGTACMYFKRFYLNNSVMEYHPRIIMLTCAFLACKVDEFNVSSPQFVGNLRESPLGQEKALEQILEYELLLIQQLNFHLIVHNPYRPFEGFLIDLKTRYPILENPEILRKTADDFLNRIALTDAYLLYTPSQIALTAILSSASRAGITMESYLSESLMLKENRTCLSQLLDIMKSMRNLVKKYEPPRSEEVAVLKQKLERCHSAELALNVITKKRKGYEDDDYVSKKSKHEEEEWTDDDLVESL
Chain of CDK7/Cyclin H/MNAT1 (P50613 whole entry, the tested form may be a part): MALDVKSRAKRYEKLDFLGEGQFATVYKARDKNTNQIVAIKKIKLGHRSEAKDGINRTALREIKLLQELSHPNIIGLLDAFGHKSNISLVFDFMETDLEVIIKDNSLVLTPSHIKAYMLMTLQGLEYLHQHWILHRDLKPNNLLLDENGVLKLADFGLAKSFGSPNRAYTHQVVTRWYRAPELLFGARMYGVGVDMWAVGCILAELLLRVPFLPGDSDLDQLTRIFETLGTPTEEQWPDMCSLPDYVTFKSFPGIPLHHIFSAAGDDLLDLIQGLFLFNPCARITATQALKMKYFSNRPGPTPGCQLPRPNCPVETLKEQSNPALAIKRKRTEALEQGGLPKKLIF
Chain of CDK7/Cyclin H/MNAT1 (P51948 whole entry, further chain, the tested form may be a part): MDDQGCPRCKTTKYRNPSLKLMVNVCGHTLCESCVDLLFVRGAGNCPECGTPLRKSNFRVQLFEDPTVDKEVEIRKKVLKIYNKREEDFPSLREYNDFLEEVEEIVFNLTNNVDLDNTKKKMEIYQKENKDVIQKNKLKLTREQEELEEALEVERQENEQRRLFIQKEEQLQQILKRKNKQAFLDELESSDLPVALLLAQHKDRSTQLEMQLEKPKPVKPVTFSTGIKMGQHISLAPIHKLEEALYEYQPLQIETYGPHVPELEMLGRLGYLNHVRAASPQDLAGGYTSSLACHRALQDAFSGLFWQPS
Chain of Platelet-derived growth factor receptor alpha (P16234 whole entry, the tested form may be a part): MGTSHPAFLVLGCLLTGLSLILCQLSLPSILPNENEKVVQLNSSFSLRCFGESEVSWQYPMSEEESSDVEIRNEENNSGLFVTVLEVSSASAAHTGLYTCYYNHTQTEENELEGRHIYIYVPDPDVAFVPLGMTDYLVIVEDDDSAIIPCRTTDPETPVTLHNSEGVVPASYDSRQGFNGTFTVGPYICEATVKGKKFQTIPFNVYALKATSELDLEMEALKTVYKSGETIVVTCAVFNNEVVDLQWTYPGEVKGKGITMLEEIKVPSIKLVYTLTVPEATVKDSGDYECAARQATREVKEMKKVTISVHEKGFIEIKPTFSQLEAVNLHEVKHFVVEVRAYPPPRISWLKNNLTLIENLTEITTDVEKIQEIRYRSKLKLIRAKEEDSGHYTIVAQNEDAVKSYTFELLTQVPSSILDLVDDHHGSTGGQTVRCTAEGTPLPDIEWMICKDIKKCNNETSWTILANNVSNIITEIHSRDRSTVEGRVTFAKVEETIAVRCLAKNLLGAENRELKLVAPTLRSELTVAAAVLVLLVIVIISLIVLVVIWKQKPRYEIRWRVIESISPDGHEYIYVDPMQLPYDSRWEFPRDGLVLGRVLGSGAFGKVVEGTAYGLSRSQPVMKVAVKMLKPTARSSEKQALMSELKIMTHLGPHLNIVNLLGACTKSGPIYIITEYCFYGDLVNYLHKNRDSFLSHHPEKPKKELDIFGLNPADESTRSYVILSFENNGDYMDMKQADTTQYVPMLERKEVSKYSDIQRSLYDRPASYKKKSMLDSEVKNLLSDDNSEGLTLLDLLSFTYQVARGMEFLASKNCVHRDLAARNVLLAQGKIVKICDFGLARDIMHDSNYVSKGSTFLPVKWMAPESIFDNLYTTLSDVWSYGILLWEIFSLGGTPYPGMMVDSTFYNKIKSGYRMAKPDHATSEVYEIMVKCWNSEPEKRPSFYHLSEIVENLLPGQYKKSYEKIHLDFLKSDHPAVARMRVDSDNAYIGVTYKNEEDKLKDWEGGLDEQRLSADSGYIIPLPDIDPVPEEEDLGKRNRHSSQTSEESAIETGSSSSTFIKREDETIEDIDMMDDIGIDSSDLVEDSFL
Chain of Platelet-activating factor receptor (Homo sapiens) (P25105 whole entry): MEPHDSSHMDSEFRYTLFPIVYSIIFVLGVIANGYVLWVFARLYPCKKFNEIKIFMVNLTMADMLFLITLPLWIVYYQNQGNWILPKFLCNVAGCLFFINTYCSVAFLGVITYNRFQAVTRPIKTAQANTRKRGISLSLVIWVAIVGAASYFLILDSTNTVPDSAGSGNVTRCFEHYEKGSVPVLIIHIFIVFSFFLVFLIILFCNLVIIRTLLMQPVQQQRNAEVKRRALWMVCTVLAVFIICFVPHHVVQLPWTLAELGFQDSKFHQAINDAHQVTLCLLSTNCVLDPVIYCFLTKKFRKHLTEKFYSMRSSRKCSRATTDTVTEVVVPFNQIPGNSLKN
Chain of Tyrosine-protein kinase ABL1 (P00519 whole entry, the tested form may be a part): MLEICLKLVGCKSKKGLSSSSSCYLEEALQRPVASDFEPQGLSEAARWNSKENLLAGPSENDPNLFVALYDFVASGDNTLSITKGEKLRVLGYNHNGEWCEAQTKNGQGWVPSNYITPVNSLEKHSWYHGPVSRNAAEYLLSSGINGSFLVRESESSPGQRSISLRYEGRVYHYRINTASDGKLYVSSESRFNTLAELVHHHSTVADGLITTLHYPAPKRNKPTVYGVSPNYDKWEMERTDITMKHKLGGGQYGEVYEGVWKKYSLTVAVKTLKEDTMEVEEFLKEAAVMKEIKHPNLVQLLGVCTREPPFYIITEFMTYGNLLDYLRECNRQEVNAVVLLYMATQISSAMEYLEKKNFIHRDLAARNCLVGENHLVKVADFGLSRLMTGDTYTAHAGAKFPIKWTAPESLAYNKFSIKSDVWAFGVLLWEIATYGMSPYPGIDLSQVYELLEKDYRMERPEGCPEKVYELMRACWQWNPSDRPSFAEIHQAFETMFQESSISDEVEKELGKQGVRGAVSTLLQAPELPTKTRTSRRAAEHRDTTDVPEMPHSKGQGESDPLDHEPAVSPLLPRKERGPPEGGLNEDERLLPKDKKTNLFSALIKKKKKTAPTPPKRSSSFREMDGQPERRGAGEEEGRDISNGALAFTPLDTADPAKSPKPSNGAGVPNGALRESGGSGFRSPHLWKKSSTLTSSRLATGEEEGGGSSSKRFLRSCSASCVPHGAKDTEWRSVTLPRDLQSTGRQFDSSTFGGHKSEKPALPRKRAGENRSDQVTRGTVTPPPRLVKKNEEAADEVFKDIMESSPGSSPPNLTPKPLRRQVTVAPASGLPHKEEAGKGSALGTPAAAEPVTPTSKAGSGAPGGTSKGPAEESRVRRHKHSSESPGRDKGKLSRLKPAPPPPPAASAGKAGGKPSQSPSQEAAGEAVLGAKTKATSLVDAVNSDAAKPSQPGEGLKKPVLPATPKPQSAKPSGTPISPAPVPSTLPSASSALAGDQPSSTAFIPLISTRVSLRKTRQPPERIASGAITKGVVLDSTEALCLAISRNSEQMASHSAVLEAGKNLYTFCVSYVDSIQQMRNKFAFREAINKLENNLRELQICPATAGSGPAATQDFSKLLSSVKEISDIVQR
Chain of Tyrosine-protein kinase ITK/TSK (Q08881 whole entry): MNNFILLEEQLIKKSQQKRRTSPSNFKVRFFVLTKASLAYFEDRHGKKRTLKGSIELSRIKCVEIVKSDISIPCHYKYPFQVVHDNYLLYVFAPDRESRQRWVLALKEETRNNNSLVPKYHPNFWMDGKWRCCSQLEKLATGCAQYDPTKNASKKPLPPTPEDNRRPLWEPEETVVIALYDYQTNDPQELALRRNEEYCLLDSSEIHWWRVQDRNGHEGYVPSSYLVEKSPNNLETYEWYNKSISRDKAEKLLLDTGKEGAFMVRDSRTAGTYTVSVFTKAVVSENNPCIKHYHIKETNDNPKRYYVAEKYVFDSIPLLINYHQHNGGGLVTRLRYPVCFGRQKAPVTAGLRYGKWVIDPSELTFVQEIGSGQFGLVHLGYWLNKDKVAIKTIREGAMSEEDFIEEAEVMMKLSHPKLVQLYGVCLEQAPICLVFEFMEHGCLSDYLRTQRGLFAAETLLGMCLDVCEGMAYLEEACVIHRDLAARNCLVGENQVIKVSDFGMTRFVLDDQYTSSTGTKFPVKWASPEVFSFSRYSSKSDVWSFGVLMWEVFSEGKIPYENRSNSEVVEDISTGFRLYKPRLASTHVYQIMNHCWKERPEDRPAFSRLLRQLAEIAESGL
Chain of Tyrosine-protein kinase Lyn (P07948 whole entry): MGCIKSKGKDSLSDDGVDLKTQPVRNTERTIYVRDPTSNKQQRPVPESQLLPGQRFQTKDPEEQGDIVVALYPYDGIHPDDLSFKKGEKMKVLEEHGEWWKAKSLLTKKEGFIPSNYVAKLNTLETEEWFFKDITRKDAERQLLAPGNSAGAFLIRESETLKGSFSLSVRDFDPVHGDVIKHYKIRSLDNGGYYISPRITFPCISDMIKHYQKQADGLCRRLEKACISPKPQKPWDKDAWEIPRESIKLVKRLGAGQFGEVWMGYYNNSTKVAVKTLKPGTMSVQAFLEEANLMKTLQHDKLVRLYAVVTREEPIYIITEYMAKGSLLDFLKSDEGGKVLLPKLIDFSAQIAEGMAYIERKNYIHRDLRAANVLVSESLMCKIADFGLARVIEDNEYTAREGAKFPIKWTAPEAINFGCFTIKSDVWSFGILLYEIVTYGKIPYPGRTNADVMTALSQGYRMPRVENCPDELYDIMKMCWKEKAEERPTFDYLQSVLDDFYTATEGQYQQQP
Chain of Serine/threonine-protein kinase pim-1 (P11309 whole entry): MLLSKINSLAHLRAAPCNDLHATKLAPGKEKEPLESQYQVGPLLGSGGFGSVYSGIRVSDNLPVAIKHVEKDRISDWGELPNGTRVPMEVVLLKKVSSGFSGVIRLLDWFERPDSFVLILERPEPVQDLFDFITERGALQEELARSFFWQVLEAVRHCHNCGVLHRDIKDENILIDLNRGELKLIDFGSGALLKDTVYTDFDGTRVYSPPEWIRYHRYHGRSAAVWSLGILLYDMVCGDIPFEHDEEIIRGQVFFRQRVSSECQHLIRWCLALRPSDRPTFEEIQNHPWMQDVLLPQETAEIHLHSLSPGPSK

For `C[C@@H]1C[C@H]1C(=O)N1CCN(c2cnc(C#N)c(-c3cnn(C)c3)n2)C[C@H]1C`, the Ratio IC50 (Homo sapiens) was 847, the fraction unbound [1] was 0.213 and the IC50 [2] was greater than 30 µM. For the same compound, the IC50 [3] was greater than 100 µM, the IC50 [4] was greater than 100 µM and the IC50 (Ephrin type-A receptor 1) was 34 µM. It also gave an IC50 [5] of 26.1 µM, an inhibition [6] of 1% and an inhibition [7] of 7%. For the same compound, the inhibition [8] was -5%, the inhibition (Rattus norvegicus) was -2% and the inhibition [9] was 17%. For the same compound, the inhibition [10] was -1%, the IC50 (CDK7/Cyclin H/MNAT1) was greater than 100 µM and the IC50 (Ephrin type-A receptor 2) was greater than 100 µM. The IC50 [11] was greater than 100 µM, the IC50 [12] was greater than 100 µM and the IC50 [13] was greater than 100 µM. For the same compound, the IC50 [14] was greater than 100 µM, the IC50 [15] was greater than 100 µM and the IC50 [16] was greater than 100 µM. It also gave an IC50 [17] greater than 100 µM, an IC50 [18] greater than 100 µM and an IC50 [19] greater than 100 µM. The IC50 [20] was greater than 100 µM, the IC50 [21] was greater than 100 µM and the IC50 [22] was greater than 100 µM.
